The record followed here is article PMC7037393, “Synthesis, Structural, and Cytotoxic Properties of New Water-Soluble Copper(II) Complexes Based on 2,9-Dimethyl-1,10-Phenanthroline and Their One Derivative Containing 1,3,5-Triaza-7-Phosphaadamantane-7-Oxide” (Molecules, 2020).

By IC50 is commonly meant the concentration that gives 50% inhibition. Low readings indicate greater potency in that assay, high ones weaker potency in that assay.

In series [1] the test system is A549 (human lung carcinoma). The experiment in a line: Cytotoxicity on A549 cells, quantitative suspension test according to EN 14476. In kind it is cell-based. Conditions: observed 4 days, aqua media. The method, then:
(§1) Normal human dermal fibroblasts (NHDF) (PromoCell, C-12302) were used as normal cells and LoVo (human colorectal adenocarcinoma, ATCC® CCL-229™), A549 (human lung carcinoma, ATCC, No. CCL-185 TM), MCF-7 (human breast adenocarcinoma, ATCC, No. HTB-22^TM) and HeLa (human cervix carcinoma, ATCC, No. CCL-2 TM) were used as cancer cells. They were cultured in DMEM, DMEM–F12 or EMEM (Lonza, CA, USA). Media were supplemented with 10% FBS (Biological Industries, Kibbutz Beit-Haemek, Israel), 2 mM L-glutamine (Biological Industries, Israel), 100 U/mL of penicillin and 100 µg/mL of streptomycin (Sigma, Neustadt an der Weinstrasse, Germany).
(§2) The 100 μL of suspension of NHDF, A549, HeLa, LoVo, and MCF7 cells at a density of 4 × 10^4 cells mL^−1 were incubated in a 96-well polystyrene plate (NUNC, Denmark) for 24 h. Product test solutions were prepared in DMEM, DMEM–F12, or EMEM supplemented with additional 2% FBS and 2 mM L-glutamine. Solutions of the reagents at concentrations from 460 (for 1), 454 (2), […] (3), 1242 (Cu(NO3)2), 1732 (PTA=O), and 1440 µM (dmphen) to 4.60 × 10^−6, 4.54 × 10^−6, 4.69 × 10^−6, 1.24 × 10^−5, 1.73 × 10^−5, and 1.44 × 10^−5 µM, respectively, were prepared and transferred (100 μL) into cell culture units (wells of microtiter plates) containing monolayer of cells. Eight units were inoculated with each dilution. Plates were incubated in 37 °C, 5% CO2 and observed daily for 4 days for the development of cytotoxic effect, using an inverted microscope (Olympus Corp., Hamburg, Germany, Axio Observer, Carl Zeiss MicroImaging GmbH). Then the wells were washed in phosphate buffered saline (PBS) and stained using DAPI (4′,6-diamidino-2-phenylindole) and propidium iodide (Merck, Darmstadt, Germany). The study used the fact that DAPI is able to be combined with cellular DNA, permeate through the membrane of cell, rapidly enter the nucleus of living cells and bind with DNA to form a DAPI-DNA complex. […] In cell culture these are cells that are apoptotic or damaged by any physical or chemical agent. Therefore, if these two fluorochrome are given at the same time, DAPI will get to healthy cells faster, while propidium iodide will stain dead or dying cells. The calculation of the ratio of cells counted on a specific area, allows to determine the potency of a substance in inhibiting a specific biological function (IC50).

The test system of series [2] is MCF7 (human breast adenocarcinoma). The experiment in a line: Cytotoxicity on MCF7 cells, quantitative suspension test according to EN 14476. The format is cell-based. As to conditions: observed 4 days, aqua media. The procedure: as §1, §2
Series [3] is described as follows: Solubility in water at 25 °C, stepwise water addition. In kind it is physicochemical. Conditions: H2O. The procedure: The copper complexes 1–3 were air stable in the solid state and at least for several days in H2O solutions. In a general procedure, the complex was dissolved in H2O in air atmosphere. […] Also UV-Vis spectra of water solutions of 1-3 confirm their stability in several days. […] After each addition of an amount of water (100 µL), the mixture was shaken for several minutes and then visually checked for any undissolved parts of the sample.

Another series relates to NHDF cells. Briefly: Cytotoxicity on normal human dermal fibroblasts, quantitative suspension test according to EN 14476 (DAPI/propidium iodide). In kind it is cell-based. As to conditions: observed 4 days, aqua media. The procedure: as §1, §2
Series [4] relates to HeLa (human cervix carcinoma). The experiment in a line: Cytotoxicity on HeLa cells, quantitative suspension test according to EN 14476. As to conditions: observed 4 days, aqua media. The format is cell-based. The procedure: as §1, §2
Series [5] has as its system LoVo (human colorectal adenocarcinoma). Briefly: Cytotoxicity on LoVo cells, quantitative suspension test according to EN 14476. The format is cell-based. As to conditions: observed 4 days, aqua media. The method, then:
as §1, §2

The target of series [6] is T1, human apo-transferrin (apo-Tf) (Homo sapiens, UniProt P02787).
T1 construct: purchased Sigma-Aldrich
T1 sequence (P02787 20-698): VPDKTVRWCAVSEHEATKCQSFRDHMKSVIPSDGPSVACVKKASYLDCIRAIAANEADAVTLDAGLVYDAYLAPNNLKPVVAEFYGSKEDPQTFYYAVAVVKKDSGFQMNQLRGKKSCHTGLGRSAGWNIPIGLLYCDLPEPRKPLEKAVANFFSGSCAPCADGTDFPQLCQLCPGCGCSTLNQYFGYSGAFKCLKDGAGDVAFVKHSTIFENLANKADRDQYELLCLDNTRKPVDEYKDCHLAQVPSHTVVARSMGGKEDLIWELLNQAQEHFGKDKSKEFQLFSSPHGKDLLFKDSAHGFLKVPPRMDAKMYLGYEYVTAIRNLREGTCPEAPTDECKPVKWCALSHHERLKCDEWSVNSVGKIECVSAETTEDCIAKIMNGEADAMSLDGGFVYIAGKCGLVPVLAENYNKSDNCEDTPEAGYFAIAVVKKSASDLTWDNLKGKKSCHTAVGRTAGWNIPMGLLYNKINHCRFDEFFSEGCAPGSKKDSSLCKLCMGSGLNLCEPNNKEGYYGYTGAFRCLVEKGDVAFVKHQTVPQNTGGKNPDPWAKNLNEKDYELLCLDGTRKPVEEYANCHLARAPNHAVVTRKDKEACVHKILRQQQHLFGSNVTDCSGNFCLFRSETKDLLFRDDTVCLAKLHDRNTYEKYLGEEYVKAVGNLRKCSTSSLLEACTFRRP
The experiment in a line: Circular dichroism of apo-transferrin, alpha-helix content. In kind it is binding. Conditions: free protein 19.80%. The procedure:
Circular dichroism (CD) measurements in the far UV region were performed to determine the effect of copper complexes on the apo-transferrin secondary structure. A characteristic for α-helical structure of protein negative bands was visible in the CD spectrum at wavelengths of 210 and 220 nm (Figure 7) and were assigned n-π* transitions peptide bonds. […] The α-helix content the free protein was equal to 19.80%.
High purity apo-transferrin (≥ 98%, Sigma-Aldrich, Steinheim, North Rhine-Westphalia, Germany) was used without prior purification. The stock solutions of the complexes were prepared in demineralized water (1 and 2) or ethanol (3). The apo-Tf was dissolved in PBS (pH 7.40). […] Samples were incubated at 300 and 310 K for 5 min. The apo-Tf concentration was determined using ε (280 nm) = 11.2 mM^−1 × cm^−1.
Circular dichroism measurements were carried out on a Jasco J-715 spectropolarimeter (Tokyo, Japan) in the range of 190–250 nm using 0.1-cm cuvettes. The α-helical content of the protein was calculated from the Equations (9) and (10):(9) MRE209= ObservedCDmdeg/Cp· n· l ·10 (10) α−helix %= −MRE209−4000/33000−4000×100 where MRE is the mean residue ellipticity, Cp is the molar concentration of the protein, n the number of amino acid residues (679), and l is the path length (0.1 cm).
(Circular dichroism is the unequal absorption of left and right circularly polarised light.)

[7] abbreviates: molar ratio apo-Tf:complex 1:20.

Regarding `CC#N.Cc1ccc2ccc3ccc(C)nc3c2n1.O=[N+]([O-])[O-].O=[N+]([O-])[O-].[Cu+2]` [Complex 3, [Cu(NO3)2(dmphen)]∙MeCN], the IC50 in series [1] came out at 430 ± 60 nM; in series [2] it was 3450 ± 510 nM; in the series on NHDF cells, 1720 ± 250 nM; in series [4], 430 ± 60 nM; in series [5], 1720 ± 250 nM. For the same compound, in series [3], the “solubility in water S25 °C” value was 2.9 mg mL^−1 and ≈ 2.9 mg mL^−1. In addition, the “α-helix content of apo-Tf upon binding” value in series [6] (molar ratio apo-Tf:complex 1:10) was 17.05%; in series [6] (setting [7]), 8.16%.

Turning to `Cc1ccc2ccc3ccc(C)nc3c2n1.Cc1ccc2ccc3ccc(C)nc3c2n1.F[P-](F)(F)(F)(F)F.[Cl-].[Cu+2]` [Complex 2, [Cu(Cl)(dmphen)2][PF6]], the IC50 was determined as 280 ± 40 nM in series [1]; 570 ± 80 nM in series [2]; 230 ± 30 nM in the series with NHDF cells; 1130 ± 170 nM in series [4]; 1130 ± 170 nM in series [5]. Also, the “solubility in water S25 °C” value in series [3] is 2.5 mg mL^−1 and ≈ 2.5 mg mL^−1. Moreover, the “α-helix content of apo-Tf upon binding” value in series [6] (setting [7]) was found to be 18.00%.

Consider `Cc1ccc2ccc3ccc(C)nc3c2n1.F[P-](F)(F)(F)(F)F.O=P12CN3CN(CN(C3)C1)C2.O=[N+]([O-])[O-].[Cu+2]` [Complex 1, [Cu(NO3)(PTA=O)(dmphen)][PF6]], for which the IC50 in series [1] stood at 290 ± 10 nM; in series [2] it was 570 ± 80 nM; in the series with NHDF cells, 570 ± 80 nM; in series [4] it was 1120 ± 160 nM; in series [5] it was 570 ± 80 nM. Also, the “solubility in water S25 °C” value in series [3] was 3.8 mg mL^−1 and ≈ 3.8 mg mL^−1. For the same compound, the “α-helix content of apo-Tf upon binding” value in series [6] (setting [7]) came out at 19.07%.
